# Assays:
# Test in all cases: Bliss interaction score (quartile over a dose matrix) (fitness difference); higher = more antagonism (negative = synergy)
# [1] = test system: S. aureus Newman
# How it was run: (§1)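 OD595 was read at entry into stationary phase and expressed relative to the robust mean of the no-drug wells on the same plate, capped at 1. The resulting ratio is the fitness value. The Bliss score, observed fitness minus product-based expected fitness with single-drug fitness inferred from combinations, is summarised by quartiles over technical, biological and donor/recipient replicates.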
# [2] = test system: B. subtilis 168
# How it was run: as §1
# [3] = test system: S. aureus DSM 20231
# How it was run: as §1
# [4] = test system: S. pneumoniae D39V
# How it was run: as §1
# 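Further: first quartile when negative (synergy) and third quartile when positive (antagonism).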
SMILES,Bliss interaction score [1],Bliss interaction score [2],Bliss interaction score [3],Bliss interaction score [4],Bliss interaction score ([1]; main component drawn),Bliss interaction score ([2]; main component drawn),Bliss interaction score ([3]; main component drawn),Bliss interaction score ([4]; main component drawn)
CC1=C(C(=O)O)N2C(=O)[C@@H](NC(=O)[C@H](N)c3ccccc3)[C@H]2SC1 [Cephalexin] + CN(C)[C@@H]1C(O)=C(C(N)=O)C(=O)[C@@]2(O)C(O)=C3C(=O)c4c(O)ccc(Cl)c4[C@@](C)(O)[C@H]3C[C@@H]12 [Clortetracycline],0.104,0.0862,0.0869,0.0348,,,,
CC[C@H]1OC(=O)[C@H](C)[C@@H](O[C@H]2C[C@@](C)(OC)[C@@H](O)[C@H](C)O2)[C@H](C)[C@@H](O[C@@H]2O[C@H](C)C[C@H](N(C)C)[C@H]2O)[C@](C)(O)C[C@@H](C)CN(C)[C@H](C)[C@@H](O)[C@]1(C)O [Azithromycin] + N[C@@H]1CONC1=O [CycloserineD],0.0743,0.0718,-0.103,0.135,,,,
O=C(O)[C@H]1/C(=C/CO)O[C@@H]2CC(=O)N21 [Clavulanic] + CCC[C@@H]1C[C@@H](C(=O)N[C@@H]([C@H]2O[C@H](SC)[C@H](O)[C@@H](O)[C@H]2O)[C@H](C)Cl)N(C)C1 [Clindamycin],0.188,-0.0975,-0.148,-0.0802,,,,
O=C(O)[C@H]1/C(=C/CO)O[C@@H]2CC(=O)N21 [Clavulanic] + CN[C@H](CC(C)C)C(=O)N[C@H]1C(=O)N[C@@H](CC(N)=O)C(=O)N[C@H]2C(=O)N[C@H]3C(=O)N[C@H](C(=O)N[C@H](C(=O)O)c4cc(O)cc(O)c4-c4cc3ccc4O)[C@H](O[C@H]3C[C@](C)(N)[C@@H](O)[C@H](C)O3)c3ccc(c(Cl)c3)Oc3cc2cc(c3O[C@@H]2O[C@H](CO)[C@@H](O)[C@H](O)[C@H]2O[C@H]2C[C@](C)(NCc3ccc(-c4ccc(Cl)cc4)cc3)[C@@H](O)[C@H](C)O2)Oc2ccc(cc2Cl)[C@H]1O [Oritavancin],0.197,-0.0388,0.0726,0.0545,,,,
C[n+]1ccc(-c2cc[n+](C)cc2)cc1 [Paraquat] + CC[C@H]1OC(=O)[C@H](C)C(=O)[C@H](C)[C@@H](O[C@@H]2O[C@H](C)C[C@H](N(C)C)[C@H]2O)[C@](C)(OC)C[C@@H](C)C(=O)[C@H](C)[C@H]2N(CCCCn3cnc(-c4cccnc4)c3)C(=O)O[C@]12C [Telithromycin],-0.0252,-0.0235,0.0414,0.0949,,,,
O=C(O)[C@H]1/C(=C/CO)O[C@@H]2CC(=O)N21 [Clavulanic] + CCC[C@@H]1C[C@@H](C(=O)N[C@@H]([C@H]2O[C@H](SC)[C@H](O)[C@@H](O)[C@H]2O)[C@@H](C)O)N(C)C1 [Lincomycin],0.132,-0.0568,-0.194,0.0627,,,,
O=C(O)[C@H]1/C(=C/CO)O[C@@H]2CC(=O)N21 [Clavulanic] + O=C(O[C@@H]1Cc2c(O)cc(O)cc2O[C@@H]1c1cc(O)c(O)c(O)c1)c1cc(O)c(O)c(O)c1 [EGCG],0.168,-0.0667,0.0689,0.0628,,,,
Clc1ccc(COC(Cn2ccnc2)c2ccc(Cl)cc2Cl)c(Cl)c1 (centres undefined) [Miconazole] + COc1cc(Cc2cnc(N)nc2N)cc(OC)c1OC [Trimethoprim],0.0486,0.0906,0.0514,-0.117,,,,
CC[C@H]1OC(=O)[C@H](C)[C@@H](O[C@H]2C[C@@](C)(OC)[C@@H](O)[C@H](C)O2)[C@H](C)[C@@H](O[C@@H]2O[C@H](C)C[C@H](N(C)C)[C@H]2O)[C@](C)(O)C[C@@H](C)CN(C)[C@H](C)[C@@H](O)[C@]1(C)O [Azithromycin] + Oc1cc(Cl)ccc1Oc1ccc(Cl)cc1Cl [Triclosan],-0.0316,-0.0359,-0.133,-0.0322,,,,
Cc1cc(NS(=O)(=O)c2ccc(N)cc2)no1 [Sulfamethoxazol] + Oc1cc(Cl)ccc1Oc1ccc(Cl)cc1Cl [Triclosan],0.0302,0.0965,0.0924,-0.0608,,,,
CC1=C(C(=O)O)N2C(=O)[C@@H](NC(=O)[C@H](N)c3ccccc3)[C@H]2SC1 [Cephalexin] + Oc1cc(Cl)ccc1Oc1ccc(Cl)cc1Cl [Triclosan],0.024,0.0637,0.0867,0.0582,,,,
CC1=C(C(=O)O)N2C(=O)[C@@H](NC(=O)[C@H](N)c3ccccc3)[C@H]2SC1 [Cephalexin] + C[C@H]1c2cccc(O)c2C(=O)C2=C(O)[C@]3(O)C(=O)C(C(N)=O)=C(O)[C@@H](N(C)C)[C@@H]3[C@@H](O)[C@@H]21 [Doxycycline],0.0562,-0.0302,0.0912,0.183,,,,
O=C(O)[C@H]1/C(=C/CO)O[C@@H]2CC(=O)N21 [Clavulanic] + C[n+]1ccc(-c2cc[n+](C)cc2)cc1 [Paraquat],-0.0709,-0.0541,0.0962,0.0522,,,,
O=C(O)[C@H]1/C(=C/CO)O[C@@H]2CC(=O)N21 [Clavulanic] + CC[C@H]1OC(=O)[C@H](C)[C@@H](O[C@H]2C[C@@](C)(OC)[C@@H](O)[C@H](C)O2)[C@H](C)[C@@H](O[C@@H]2O[C@H](C)C[C@H](N(C)C)[C@H]2O)[C@](C)(O)C[C@@H](C)C(=O)[C@H](C)[C@@H](O)[C@]1(C)O [Erythromycin],0.237,0.0508,-0.151,-0.0371,,,,
O=C(O)[C@H]1/C(=C/CO)O[C@@H]2CC(=O)N21 [Clavulanic] + COc1cc(Cc2cnc(N)nc2N)cc(OC)c1OC [Trimethoprim],0.221,0.101,-0.186,0.116,,,,
O=C(O)[C@H]1/C(=C/CO)O[C@@H]2CC(=O)N21 [Clavulanic] + C[C@@H]1O[C@@H]1P(=O)(O)O [Fosfomycin],0.258,-0.089,0.0474,-0.0291,,,,
O=C(O)[C@H]1/C(=C/CO)O[C@@H]2CC(=O)N21 [Clavulanic] + CC(=O)NC[C@H]1CN(c2ccc(N3CCOCC3)c(F)c2)C(=O)O1 [Linezolid],0.242,0.0747,-0.196,-0.1,,,,
Cc1cc(NS(=O)(=O)c2ccc(N)cc2)no1 [Sulfamethoxazol] + CC[C@H]1OC(=O)[C@H](C)C(=O)[C@H](C)[C@@H](O[C@@H]2O[C@H](C)C[C@H](N(C)C)[C@H]2O)[C@](C)(OC)C[C@@H](C)C(=O)[C@H](C)[C@H]2N(CCCCn3cnc(-c4cccnc4)c3)C(=O)O[C@]12C [Telithromycin],0.0359,-0.0301,0.034,-0.0611,,,,
O=C(O)[C@H]1/C(=C/CO)O[C@@H]2CC(=O)N21 [Clavulanic] + CN(N=O)C(=O)N[C@@H](C=O)[C@@H](O)[C@H](O)[C@H](O)CO [Streptozotocin],0.197,-0.0541,-0.0853,0.059,,,,
O=C(O)[C@H]1/C(=C/CO)O[C@@H]2CC(=O)N21 [Clavulanic] + CCCCCCCCCC(=O)N[C@@H]1[C@H]([C@@H]([C@H](O[C@H]1OC2=C3C=C4C=C2OC5=C(C=C(C=C5)[C@H]([C@H]6C(=O)N[C@@H](C7=C(C(=CC(=C7)O)OC8[C@H]([C@H]([C@@H]([C@H](O8)CO)O)O)O)C9=C(C=CC(=C9)[C@H](C(=O)N6)NC(=O)[C@@H]4NC(=O)[C@@H]1C2=CC(=CC(=C2)OC2=C(C=CC(=C2)[C@H](C(=O)N[C@H](CC2=CC(=C(O3)C=C2)Cl)C(=O)N1)N)O)O)O)C(=O)O)O[C@H]1[C@@H]([C@H]([C@@H]([C@H](O1)CO)O)O)NC(=O)C)Cl)CO)O)O [Teicoplanin],,,,,-0.059,-0.178,0.119,-0.0601
CC1=C(C(=O)O)N2C(=O)[C@@H](NC(=O)[C@H](N)c3ccccc3)[C@H]2SC1 [Cephalexin] + CC1(C)S[C@@H]2[C@H](NC(=O)Cc3ccccc3)C(=O)N2[C@H]1C(=O)O [PenicillinG],-0.0472,0.0543,-0.0449,-0.199,,,,
CC[C@H]1OC(=O)[C@H](C)[C@@H](O[C@H]2C[C@@](C)(OC)[C@@H](O)[C@H](C)O2)[C@H](C)[C@@H](O[C@@H]2O[C@H](C)C[C@H](N(C)C)[C@H]2O)[C@](C)(O)C[C@@H](C)CN(C)[C@H](C)[C@@H](O)[C@]1(C)O [Azithromycin] + CO[C@@]12[C@H](COC(N)=O)C3=C(C(=O)C(C)=C(N)C3=O)N1C[C@@H]1N[C@@H]12 [MitomycinC],0.0499,0.116,-0.0652,-0.0779,,,,
O=C(O)[C@H]1/C(=C/CO)O[C@@H]2CC(=O)N21 [Clavulanic] + CN[C@@H]1[C@H](O)[C@H](NC)[C@H]2O[C@@]3(O)C(=O)C[C@@H](C)O[C@H]3O[C@@H]2[C@H]1O [Spectinomycin],0.104,0.0479,0.137,-0.0465,,,,
O=C(O)[C@H]1/C(=C/CO)O[C@@H]2CC(=O)N21 [Clavulanic] + N[C@@H]1CONC1=O [CycloserineD],-0.0992,0.0614,0.116,-0.0906,,,,
CC1=C(C(=O)O)N2C(=O)[C@@H](NC(=O)[C@H](N)c3ccccc3)[C@H]2SC1 [Cephalexin] + O=C(O)[C@H]1/C(=C/CO)O[C@@H]2CC(=O)N21 [Clavulanic],-0.0674,-0.0461,0.0895,-0.14,,,,
O=C(O)[C@H]1/C(=C/CO)O[C@@H]2CC(=O)N21 [Clavulanic] + O=C1CN(/N=C/c2ccc([N+](=O)[O-])o2)C(=O)N1 [Nitrofurantoin],0.102,0.0868,0.039,0.0879,,,,

# Source: the supplement of paper PMC10627819
